Reference: ChEMBL document CHEMBL1833830, “1-[2-(2-Benzoyl- and 2-benzylphenoxy)ethyl]uracils as potent anti-HIV-1 agents” (Bioorg Med Chem, 2011)
≈ marks a conversion by molar mass, not a printed value. Calls of active or inactive are those of the source. The rule behind the calls is not given here.

How the values were obtained:
Human respirovirus 3 = test: Antiviral activity against Parainfluenza 3 virus assessed as inhibition of viral replication; format: functional, organism-based
[1] = tested on: Mammalian orthoreovirus 1; test: Antiviral activity against Reovirus 1 assessed as inhibition of viral replication; format: functional, organism-based
Sindbis virus = test: Antiviral activity against Sindbis virus assessed as inhibition of viral replication; format: functional, organism-based
[2] = tested on: Vesicular stomatitis virus; test: Antiviral activity against Vesicular stomatitis virus assessed as inhibition of viral replication; format: functional, organism-based
[3] = tested on: Respiratory syncytial virus; test: Antiviral activity against Respiratory syncytial virus assessed as inhibition of viral replication; format: functional, organism-based
Coxsackievirus B4 = test: Antiviral activity against Coxsackievirus B4 assessed as inhibition of viral replication; format: functional, organism-based
Feline coronavirus = test: Antiviral activity against Feline coronavirus assessed as inhibition of viral replication; format: functional, organism-based
Yellow fever virus = test: Antiviral activity against Yellow fever virus assessed as inhibition of viral replication; format: functional, organism-based
Dengue virus = test: Antiviral activity against Dengue virus assessed as inhibition of viral replication; format: functional, organism-based
Rift Valley fever virus = test: Antiviral activity against Rift Valley fever virus assessed as inhibition of viral replication; format: functional, organism-based
Punta Toro virus = test: Antiviral activity against Punta Toro virus assessed as inhibition of viral replication; format: functional, organism-based
West Nile virus = test: Antiviral activity against West Nile virus assessed as inhibition of viral replication; format: functional, organism-based
[4] = Inhibition of DNA-dependent DNA polymerase activity of HIV1 reverse transcriptase p66/p66 homodimer using activated DNA and [alpha-32P]dATP after 30 mins by liquid scintillation counting; parameters: species or system Human immunodeficiency virus 1
[5] = biological target: Human immunodeficiency virus type 1 reverse transcriptase (Human immunodeficiency virus 1, UniProt Q72547); test: Inhibition of RNA-dependent DNA polymerase activity of HIV1 reverse transcriptase p66/p51 heterodimer using [8-3H]dGTP as substrate after 30 mins by liquid scintillation counting
[6] = tested on: Human immunodeficiency virus 1; test: Inhibition of DNA-dependent DNA polymerase activity of HIV1 reverse transcriptase p66/p66 homodimer using activated DNA and [alpha-32P]dATP after 30 mins by liquid scintillation counting in presence of heparin
[7] = Selectivity index, ratio of CC50 for human CEM cells to EC50 for HIV1 3B; format: toxicity, cell-based, CCRF-CEM; conditions: read-out: Ratio CC50/EC50
[8] = Solubility of the compound in 10% DMSO after overnight incubation by UV spectrometric analysis; format: physicochemical
[9] = Solubility of the compound in 0.1% DMSO after overnight incubation by UV spectrometric analysis; format: physicochemical
[10] = tested on: Human immunodeficiency virus 1; test: Antiviral activity against HIV1 3B infected in human CEM cells assessed as inhibition of virus-induced giant cell formation after 4 days by microscopic analysis; format: functional, organism-based; conditions: Human immunodeficiency virus 1, 3B, CCRF-CEM, 96 h
[11] = tested on: Human immunodeficiency virus 2; test: Antiviral activity against Human immunodeficiency virus type 2 ROD infected in human CEM cells assessed as inhibition of virus-induced giant cell formation after 4 days by microscopic analysis; format: functional, organism-based; conditions: ISOLATE ROD, CCRF-CEM
[12] = tested on: Human immunodeficiency virus 2; test: Antiviral activity against Human immunodeficiency virus type 2 ROD infected in human MT4 cells assessed as inhibition of virus-induced cytopathic effect after 4 days by MTT assay; format: functional, organism-based; conditions: ISOLATE ROD
[13] = Cytotoxicity against human CEM cells after 4 days by MTT assay; format: cell-based; conditions: CEM cells (CCRF-CEM)
Human alphaherpesvirus 1 = test: Antiviral activity against HSV1 assessed as inhibition of viral replication; format: functional, organism-based
Human alphaherpesvirus 2 = test: Antiviral activity against HSV-2 assessed as inhibition of viral replication; format: functional, organism-based
Vaccinia virus = test: Antiviral activity against Vaccinia virus assessed as inhibition of viral replication; format: functional, organism-based; conditions: Orthopoxvirus vaccinia
[14] = Inhibition of DNA-dependent DNA polymerase activity of HIV1 reverse transcriptase p66/p66 homodimer L100I mutant using activated DNA and [alpha-32P]dATP after 30 mins by liquid scintillation counting; parameters: species or system Human immunodeficiency virus 1
[15] = Inhibition of DNA-dependent DNA polymerase activity of HIV1 reverse transcriptase p66/p66 homodimer V106A mutant using activated DNA and [alpha-32P]dATP after 30 mins by liquid scintillation counting; parameters: species or system Human immunodeficiency virus 1
[16] = Inhibition of DNA-dependent DNA polymerase activity of HIV1 reverse transcriptase p66/p66 homodimer Y188L mutant using activated DNA and [alpha-32P]dATP after 30 mins by liquid scintillation counting; parameters: species or system Human immunodeficiency virus 1
[17] = Inhibition of DNA-dependent DNA polymerase activity of HIV1 reverse transcriptase p66/p66 homodimer G190A mutant using activated DNA and [alpha-32P]dATP after 30 mins by liquid scintillation counting; parameters: species or system Human immunodeficiency virus 1
[18] = tested on: Human immunodeficiency virus 1; test: Ratio of Ki for HIV1 RT p66/p66 homodimer L100I mutant to Ki for wild-type HIV1 RT p66/p66 homodimer
[19] = tested on: Human immunodeficiency virus 1; test: Ratio of Ki for HIV1 RT p66/p66 homodimer K103N mutant to Ki for wild-type HIV1 RT p66/p66 homodimer
[20] = tested on: Human immunodeficiency virus 1
[21] = tested on: Human immunodeficiency virus 1; test: Ratio of Ki for HIV1 RT p66/p66 homodimer Y188L mutant to Ki for wild-type HIV1 RT p66/p66 homodimer
[22] = tested on: Human immunodeficiency virus 1; test: Ratio of Ki for HIV1 RT p66/p66 homodimer G190A mutant to Ki for wild-type HIV1 RT p66/p66 homodimer
[23] = tested on: Human immunodeficiency virus 1; remark: listed apart in the source
[24] = tested on: Human immunodeficiency virus 1; format: functional, organism-based; conditions: Human immunodeficiency virus 1, 3B, MT4, 96 h
[25] = Cytotoxicity against human MT4 cells after 4 days by MTT assay; format: cell-based
[26] = biological target: Human immunodeficiency virus type 1 reverse transcriptase (Human immunodeficiency virus 1, UniProt Q72547, K103N)
in vitro [27] = conditions: human, MT4 cells
in vitro [28] = conditions: human, MT4 cells; remark: listed apart in the source
[29] = tested on: Human immunodeficiency virus 1; test: microbe, parasite or virus in culture; conditions: Human immunodeficiency virus 1, 3B, MT4, 96 h
[30] = tested on: Human immunodeficiency virus 1; format: functional, organism-based; conditions: Human immunodeficiency virus 1, 3B, CCRF-CEM, 96 h

In the case of `Cc1cc(C)cc(Cc2cc(C)ccc2OCCn2ccc(=O)[nH]c2=O)c1`, the Activity (Human respirovirus 3) is reported as “inactive”, the Activity [1] is reported as “inactive” and the Activity (Sindbis virus) is reported as “inactive”. The Activity [2] was “inactive”, the Activity [3] was “inactive” and the Activity (Coxsackievirus B4) was “inactive”. The Activity (Feline coronavirus) was “inactive”, the Activity (Yellow fever virus) was “inactive” and the Activity (Dengue virus) was “inactive”. The Activity (Rift Valley fever virus) was “inactive”, the Activity (Punta Toro virus) was “inactive” and the Activity (West Nile virus) was “inactive”. For the same compound, the Ki [4] was 5.9 µM, the Ki [5] was 2.7 µM and the inhibition [6] was “Active”. For the same compound, the selectivity ratio [7] was 507, the solubility [8] was 184 µM (≈ 67.2 µg/mL) and the solubility [9] was 44.4 µM (≈ 16.2 µg/mL). For the same compound, the EC50 [10] was 0.13 µM, the Activity [11] was “inactive” and the Activity [12] was “inactive”. For the same compound, the CC50 at 96 h [13] was 66 µM, the Activity (Human alphaherpesvirus 1) was “inactive” and the Activity (Human alphaherpesvirus 2) was “inactive”. The Activity (Vaccinia virus) was “inactive”.

In the case of `O=C(c1cc(Cl)cc(Cl)c1)c1cc(Cl)ccc1OCCn1ccc(=O)[nH]c1=O`, the Activity (Human respirovirus 3) is reported as “inactive”, the Activity [1] is reported as “inactive” and the Activity (Sindbis virus) is reported as “inactive”. For the same compound, the Activity [2] was “inactive”, the Activity [3] was “inactive” and the Activity (Coxsackievirus B4) was “inactive”. For the same compound, the Activity (Feline coronavirus) was “inactive”, the Activity (Yellow fever virus) was “inactive” and the Activity (Dengue virus) was “inactive”. For the same compound, the Activity (Rift Valley fever virus) was “inactive”, the Activity (Punta Toro virus) was “inactive” and the Activity (West Nile virus) was “inactive”. It also gave a Ki [4] of 0.68 µM, a Ki [5] of 0.82 µM and a Ki [14] of 1.8 µM. The Ki [15] was greater than 1200 µM, the Ki [16] was 8.4 µM and the Ki [17] was 1.6 µM. For the same compound, the Ratio Ki [18] was 2.5, the Ratio Ki [19] was 8 and the Ratio Ki [20] was 2. For the same compound, the Ratio Ki [21] was 12, the Ratio Ki [22] was 2.3 and the Ratio Ki [23] was 14.9. The solubility [8] was 9.4 µM (≈ 4.13 µg/mL), the solubility [9] was 1.9 µM (≈ 0.835 µg/mL) and the Activity [11] was “inactive”. For the same compound, the Activity [12] was “inactive”, the EC50 [24] was 1.13 µM and the CC50 at 96 h [25] was greater than 284 µM. For the same compound, the Activity (Human alphaherpesvirus 1) was “inactive”, the Activity (Human alphaherpesvirus 2) was “inactive” and the Activity (Vaccinia virus) was “inactive”. For the same compound, the Ki [26] was 5.6 µM, the selectivity ratio (in vitro [27]) was greater than 15800 and the selectivity ratio (in vitro [28]) was greater than 251. For the same compound, the EC50 [29] was 0.018 µM.

For `Cc1cc(C)cc(Cc2cc(Cl)ccc2OCCn2ccc(=O)[nH]c2=O)c1`, the Activity (Human respirovirus 3) was “inactive”, the Activity [1] was “inactive” and the Activity (Sindbis virus) was “inactive”. The Activity [2] was “inactive”, the Activity [3] was “inactive” and the Activity (Coxsackievirus B4) was “inactive”. The Activity (Feline coronavirus) was “inactive”, the Activity (Yellow fever virus) was “inactive” and the Activity (Dengue virus) was “inactive”. The Activity (Rift Valley fever virus) was “inactive”, the Activity (Punta Toro virus) was “inactive” and the Activity (West Nile virus) was “inactive”. For the same compound, the Ki [4] was 5 µM, the Ki [5] was 2.1 µM and the selectivity ratio [7] was greater than 909. For the same compound, the solubility [8] was 1.7 µM (≈ 0.654 µg/mL), the solubility [9] was 0.9 µM (≈ 0.346 µg/mL) and the EC50 [10] was 0.22 µM. For the same compound, the Activity [11] was “inactive”, the Activity [12] was “inactive” and the EC50 [30] was greater than 200 µM. For the same compound, the CC50 at 96 h [13] was greater than 200 µM, the Activity (Human alphaherpesvirus 1) was “inactive” and the Activity (Human alphaherpesvirus 2) was “inactive”. The Activity (Vaccinia virus) was “inactive”.
